Earlier results, collected in patent US20070009938A1, “Minimalist bZIP derivatives that bind to noncanonical gene regulatory sequences” (priority 2005, published 2007).

Key:
AP-1 site = details: previously shown, Lajmi et al. 2000
CRE (ATF/CREB) site = details: previously shown, Lajmi et al. 2000

Substance | binding to AP-1 site, DNase I footprinting (AP-1 site) | binding to CRE (ATF/CREB) site, DNase I footprinting (CRE (ATF/CREB) site)
4A: alanine-rich derivative of wt bZIP with four Ala substitutions in the GCN4 basic region (SEQ ID NO:3) (ARAAAARARNTAAARRSRARKLQRMKQ; basic region 4A bZIP mutant peptide) | bind | bind
11A: alanine-rich derivative of wt bZIP with eleven Ala substitutions in the basic region, also mutated in the hinge (SEQ ID NO:4) (ARAAAARARNTAAARRSRAAKAAAAAA; basic region 11A bZIP mutant peptide) | bind | bind
18A: alanine-rich derivative of wt bZIP; 24 of the 27 basic-region residues are alanine (SEQ ID NO:5) (AAAAAAAAANAAAAAAARAAKAAAAAA; basic region 18A bZIP mutant peptide) | bind | bind
